Results from ChEMBL document CHEMBL1136378, “Novel 6,7-diphenyl-2,3,8,8a-tetrahydro-1H-indolizin-5-one analogues as cytotoxic agents” (Bioorg Med Chem Lett, 2003).

Columns and labels:
U-251 = test: In vitro cytotoxic activity tested against human CNS (U251) cell line; type: functional
SW-620 [1] = test: In vitro cytotoxic activity tested against human colon cancer (SW620) cell line; type: functional
M14 [2] = test: In vitro cytotoxic activity was tested against human melanoma cancer (M14) cell line; type: functional
SK-OV-3 [3] = test: In vitro cytotoxic activity tested against human ovarian cancer (SK-OV3) cell line; type: functional
DU-145 [4] = test: In vitro cytotoxic activity tested against human prostate cancer (DU145) cell line; type: functional
A498 [5] = test: In vitro cytotoxic activity was tested against human renal cancer (A498) cell line; type: functional
[6] = Average growth inhibition against cell lines was calculated; type: functional
NCI-H522 [7] = test: In vitro cytotoxic activity tested against human lung cancer (H-522) cell line
NCI/ADR-RES [8] = test: In vitro cytotoxic activity tested against human breast cancer MCF/ADR cell line
[9] = Tmax value was determined at a dose of 200 mg/kg (i.p.) in Mice; type: ADME, organism-based; set-up: dose 200 mg/kg, route intraperitoneal; conditions: mouse, in vivo, ip
[10] = Cmax value was determined at a dose of 200 mg/kg (i.p.) in Mice; type: ADME, organism-based; set-up: dose 200 mg/kg, route intraperitoneal; conditions: mouse, in vivo, ip
[11] = Area under curve was determined at a dose of 200 mg/kg (i.p.) in Mice; type: ADME, organism-based; set-up: dose 200 mg/kg, route intraperitoneal; conditions: mouse, in vivo, ip
[12] = Half life beta(2,4,6,8h) value was determined at a dose of 200 mg/kg (i.p.) in Mice; type: ADME, organism-based; set-up: dose 200 mg/kg, route intraperitoneal; conditions: mouse, in vivo, ip, read-out: T1/2 beta (converted)
[13] = Tmax value was determined at a dose of 100 mg/kg (i.p.) in Mice; type: ADME, organism-based; set-up: dose 100 mg/kg, route intraperitoneal; conditions: mouse, in vivo, ip
[14] = Cmax value was determined at a dose of 100 mg/kg (i.p.) in Mice; type: ADME, organism-based; set-up: dose 100 mg/kg, route intraperitoneal; conditions: mouse, in vivo, ip
[15] = Area under curve was determined at a dose of 100 mg/kg (i.p.) in Mice; type: ADME, organism-based; set-up: dose 100 mg/kg, route intraperitoneal; conditions: mouse, in vivo, ip
A498 [16] = test: In vitro cytotoxic activity against human renal cancer (A498) cell line; type: functional
DU-145 [17] = test: In vitro cytotoxic activity against human prostate cancer (DU145) cell line; type: functional
M14 [18] = test: In vitro cytotoxic activity against human melanoma cancer (M14) cell line; type: functional
NCI/ADR-RES [19] = test: In vitro cytotoxic activity against human breast cancer MCF/ADR cell line; type: functional
SK-OV-3 [20] = test: In vitro cytotoxic activity against human ovarian cancer (SK-OV3) cell line; type: functional
SW-620 [21] = test: In vitro cytotoxic activity against human colon cancer (SW620) cell line; type: functional
NCI-H522 [22] = test: In vitro cytotoxic activity against human lung cancer (H-522) cell line

Row | Structure (SMILES) | GI50 (U-251) [µM] | GI50 (SW-620 [1]) [µM] | GI50 (M14 [2]) [µM] | GI50 (SK-OV-3 [3]) [µM] | GI50 (DU-145 [4]) [µM] | GI50 (A498 [5]) [µM] | GI50 [6] [µM] | GI50 (NCI-H522 [7]) [µM] | GI50 (NCI/ADR-RES [8]) [µM] | also measured
1 | COc1ccc(C2=C(c3ccc(SC)cc3)CC3CCCN3C2=O)cc1Br (stereo not drawn) | 0.8 | 5 | 3 | 3 | 0.9 | 0.6 | 2.5 | 0.7 | 6 | –
2 | COc1ccc(C2=C(c3ccc(SC)cc3)CC3CCCN3C2=O)cc1C (stereo not drawn) | 0.09 | 0.5 | 0.2 | 15 | 0.9 | 0.4 | 2.1 | 0.1 | 0.4 | –
3 | COc1ccc(C2=C(c3ccc(SC)cc3)CC3CCCN3C2=O)cc1O (stereo not drawn) | 5 | 20 | – | > 100 | 6 | – | 23.6 | 6 | 5 | –
4 | CSc1ccc(C2=C(c3ccc(O)cc3)C(=O)N3CCCC3C2)cc1 (stereo not drawn) | > 100 | > 100 | > 100 | > 100 | > 100 | > 100 | > 100 | > 100 | > 100 | –
5 | CSc1ccc(C2=C(c3ccc(F)cc3)C(=O)N3CCCC3C2)cc1 (stereo not drawn) | 0.09 | 0.5 | 0.6 | 30 | 0.5 | 0.1 | 4.1 | 0.25 | 0.8 | Tmax [9]: 1.5 h; Cmax [10]: 0.99 µM; AUC [11]: 3.88 µM·h; half-life [12]: 2.59 h
6 | CSc1ccc(C2=C(c3ccc(Br)cc3)C(=O)N3CCCC3C2)cc1 (stereo not drawn) | 7 | 7 | 9 | 9 | 9 | 7 | 7.8 | 7 | 8 | –
7 | CSc1ccc(C2=C(c3ccc(C)c(C)c3)C(=O)N3CCCC3C2)cc1 (stereo not drawn) | 10 | 0.7 | 0.8 | 0.3 | 0.5 | 0.3 | 1.7 | 0.3 | 0.8 | –
8 | CSc1ccc(C2=C(c3ccc(F)c(F)c3)C(=O)N3CCCC3C2)cc1 (stereo not drawn) | 15 | 0.2 | 0.3 | 0.1 | 0.5 | 0.1 | 2.1 | 0.2 | 0.8 | Tmax [13]: 0.29 h; Cmax [14]: 3.61 µM; AUC [15]: 6.92 µM·h
9 | COc1cc(C2=C(c3ccc(SC)cc3)CC3CCCN3C2=O)ccc1O (stereo not drawn) | 8 | 9 | 9 | 8 | 8 | 5 | 7.75 | 7 | 8 | –
10 | COc1ccc(/C=C\c2cc(OC)c(OC)c(OC)c2)cc1O [COMBRETASTATIN A4] | 0.006 | 0.005 | 0.0001 | < 0.0001 | – | 0.61 | 0.103 | 0.007 | 0.09 | –
11 | COc1ccc(C2=C(c3cc(OC)c(OC)c(OC)c3)CC3CCCN3C2=O)cc1O (stereo not drawn) | > 100 | > 100 | > 100 | > 100 | > 100 | > 100 | > 100 | > 100 | > 100 | –
12 | COc1ccc(C2=C(c3ccc(SC)cc3)CC3CCCN3C2=O)cc1OC(=O)CNC(=O)OC(C)(C)C (stereo not drawn) | 6 | 20 | – | 20 | 10 | – | 11.5 | 7 | 6 | –
13 | COc1ccc(C2=C(c3ccc(SC)cc3)CC3CCCN3C2=O)cc1OC (stereo not drawn) | 0.3 | 3 | 5 | 9 | 1.5 | 8 | 3.6 | 2 | 0.6 | Tmax [9]: 0.25 h; Cmax [10]: 23 µM; AUC [11]: 102 µM·h; half-life [12]: 7.29 h
14 | CSc1ccc(C2=C(c3ccc(F)c(C)c3)C(=O)N3CCCC3C2)cc1 (stereo not drawn) | 0.2 | 0.6 | 0.8 | 0.3 | 0.5 | 0.3 | 1.1 | 0.5 | 0.5 | –
15 | COc1ccc(C2=C(c3ccc(OC)c(OC)c3)C(=O)N3CCCC3C2)cc1OC (stereo not drawn) | > 100 | > 100 | > 100 | > 100 | > 100 | > 100 | > 100 | > 100 | > 100 | –
16 | CSc1ccc(C2=C(c3ccc(SC)cc3)C(=O)N3CCCC3C2)cc1 (stereo not drawn) | 5 | 7 | 5 | 2 | 8 | 15 | 8.1 | 15 | 8 | Tmax [9]: 1 h; Cmax [10]: 0.86 µM; AUC [11]: 2.5 µM·h
17 | CSc1ccc(C2=C(c3ccc(C(F)(F)F)cc3)C(=O)N3CCCC3C2)cc1 (stereo not drawn) | 0.8 | – | – | – | – | – | 6.3 | – | – | Tmax [9]: 0.25 h; Cmax [10]: 3.79 µM; AUC [11]: 10.7 µM·h; GI50 (A498 [16]): 20 µM; GI50 (DU-145 [17]): 0.7 µM; GI50 (M14 [18]): 12 µM; GI50 (NCI/ADR-RES [19]): 0.8 µM; GI50 (SK-OV-3 [20]): 15 µM; GI50 (SW-620 [21]): 0.8 µM; half-life [12]: 2.66 h; GI50 (NCI-H522 [22]): 0.8 µM
18 | COc1ccc(C2=C(c3ccc(SC)cc3)CC3CCCN3C2)cc1O (stereo not drawn) | > 100 | > 100 | > 100 | > 100 | > 100 | > 100 | > 100 | > 100 | > 100 | –
19 | COc1ccc(C2=C(c3ccc(SC)cc3)CC3CCCN3C2=O)cc1OC(=O)C1CCCN1C(=O)OC(C)(C)C (stereo not drawn) | 2 | 10 | – | 10 | 5 | – | 6 | 5 | 4 | –
20 | CSc1ccc(C2=C(c3ccc(C)cc3)C(=O)N3CCCC3C2)cc1 (stereo not drawn) | 0.4 | 3 | 6 | 9 | 0.6 | 4 | 3 | 0.9 | 0.6 | Tmax [9]: 0.25 h; Cmax [10]: 8.02 µM; AUC [11]: 38.5 µM·h; half-life [12]: 6.24 h
21 | CSc1ccc(C2=C(c3ccc(O)c(O)c3)C(=O)N3CCCC3C2)cc1 (stereo not drawn) | 30 | 50 | – | 80 | 60 | – | 60 | 60 | 80 | –
22 | COc1ccc(C2=C(c3ccc(SC)cc3)CC3CCCN3C2=O)cc1 (stereo not drawn) | 2 | 3 | 4 | 3 | 0.9 | 0.8 | 2.4 | 0.8 | 5 | –
23 | CSc1ccc(C2=C(c3ccc(OCCN4CCOCC4)cc3)C(=O)N3CCCC3C2)cc1 (stereo not drawn) | 9 | 9 | 20 | 9 | 20 | 9 | 11.5 | 7 | 9 | –
24 | CSc1ccc(C2=C(c3ccc(OCC4CO4)cc3)C(=O)N3CCCC3C2)cc1 (stereo not drawn) | 0.08 | 0.09 | 0.09 | 10 | 0.5 | 0.5 | 2.6 | 0.03 | 10 | –
25 | COc1ccc(C2=C(c3ccc(OC)c(OC)c3)CN3CCCC3C2)cc1OC (stereo not drawn) | > 100 | > 100 | > 100 | > 100 | > 100 | > 100 | > 100 | > 100 | > 100 | –
